Laboratory results reported in ChEMBL document CHEMBL5678818, “Discovery of potent SOS1 inhibitors that block RAS activation via disruption of the RAS-SOS1 interaction” (Proc Natl Acad Sci U S A, 2019).

Columns and labels:
[1] = target: Cyclin-dependent kinase 11B (Homo sapiens) (UniProt P21127); experiment: Inhibition of CDC2L1 (unknown origin) assessed as residual activity at 100 nM by KINOMEscan analysis relative to control
[2] = target: Casein kinase I isoform gamma-2 (Homo sapiens) (UniProt P78368); experiment: Inhibition of CSNK1G2 (unknown origin) assessed as residual activity at 100 nM by KINOMEscan analysis relative to control
[3] = target: Receptor tyrosine-protein kinase erbB-3 (Homo sapiens) (UniProt P21860); experiment: Inhibition of ERBB3 (unknown origin) assessed as residual activity at 100 nM by KINOMEscan analysis relative to control
[4] = target: Fibroblast growth factor receptor 3 (Homo sapiens) (UniProt P22607); experiment: Inhibition of FGFR3 (unknown origin) assessed as residual activity at 100 nM by KINOMEscan analysis relative to control
[5] = target: MAP kinase-activated protein kinase 2 (Homo sapiens) (UniProt P49137); experiment: Inhibition of MAPKAPK2 (unknown origin) assessed as residual activity at 100 nM by KINOMEscan analysis relative to control
[6] = target: Macrophage-stimulating protein receptor (Homo sapiens) (UniProt Q04912); experiment: Inhibition of MST1R (unknown origin) assessed as residual activity at 100 nM by KINOMEscan analysis relative to control
[7] = target: Myosin-IIIa (Homo sapiens) (UniProt Q8NEV4); experiment: Inhibition of MYO3A (unknown origin) assessed as residual activity at 100 nM by KINOMEscan analysis relative to control
[8] = target: Serine/threonine-protein kinase 38-like (Homo sapiens) (UniProt Q9Y2H1); experiment: Inhibition of NDR2 (unknown origin) assessed as residual activity at 100 nM by KINOMEscan analysis relative to control
[9] = target: Mitogen-activated protein kinase 14 (Homo sapiens) (UniProt Q16539); experiment: Inhibition of p38-alpha (unknown origin) assessed as residual activity at 100 nM by KINOMEscan analysis relative to control
[10] = target: T1, Phosphatidylinositol 3-kinase C2 domain-containing subunit gamma (Homo sapiens) (UniProt O75747); experiment: Inhibition of PIK3C2G (unknown origin) assessed as residual activity at 100 nM by KINOMEscan analysis relative to control
T1 sequence (whole entry): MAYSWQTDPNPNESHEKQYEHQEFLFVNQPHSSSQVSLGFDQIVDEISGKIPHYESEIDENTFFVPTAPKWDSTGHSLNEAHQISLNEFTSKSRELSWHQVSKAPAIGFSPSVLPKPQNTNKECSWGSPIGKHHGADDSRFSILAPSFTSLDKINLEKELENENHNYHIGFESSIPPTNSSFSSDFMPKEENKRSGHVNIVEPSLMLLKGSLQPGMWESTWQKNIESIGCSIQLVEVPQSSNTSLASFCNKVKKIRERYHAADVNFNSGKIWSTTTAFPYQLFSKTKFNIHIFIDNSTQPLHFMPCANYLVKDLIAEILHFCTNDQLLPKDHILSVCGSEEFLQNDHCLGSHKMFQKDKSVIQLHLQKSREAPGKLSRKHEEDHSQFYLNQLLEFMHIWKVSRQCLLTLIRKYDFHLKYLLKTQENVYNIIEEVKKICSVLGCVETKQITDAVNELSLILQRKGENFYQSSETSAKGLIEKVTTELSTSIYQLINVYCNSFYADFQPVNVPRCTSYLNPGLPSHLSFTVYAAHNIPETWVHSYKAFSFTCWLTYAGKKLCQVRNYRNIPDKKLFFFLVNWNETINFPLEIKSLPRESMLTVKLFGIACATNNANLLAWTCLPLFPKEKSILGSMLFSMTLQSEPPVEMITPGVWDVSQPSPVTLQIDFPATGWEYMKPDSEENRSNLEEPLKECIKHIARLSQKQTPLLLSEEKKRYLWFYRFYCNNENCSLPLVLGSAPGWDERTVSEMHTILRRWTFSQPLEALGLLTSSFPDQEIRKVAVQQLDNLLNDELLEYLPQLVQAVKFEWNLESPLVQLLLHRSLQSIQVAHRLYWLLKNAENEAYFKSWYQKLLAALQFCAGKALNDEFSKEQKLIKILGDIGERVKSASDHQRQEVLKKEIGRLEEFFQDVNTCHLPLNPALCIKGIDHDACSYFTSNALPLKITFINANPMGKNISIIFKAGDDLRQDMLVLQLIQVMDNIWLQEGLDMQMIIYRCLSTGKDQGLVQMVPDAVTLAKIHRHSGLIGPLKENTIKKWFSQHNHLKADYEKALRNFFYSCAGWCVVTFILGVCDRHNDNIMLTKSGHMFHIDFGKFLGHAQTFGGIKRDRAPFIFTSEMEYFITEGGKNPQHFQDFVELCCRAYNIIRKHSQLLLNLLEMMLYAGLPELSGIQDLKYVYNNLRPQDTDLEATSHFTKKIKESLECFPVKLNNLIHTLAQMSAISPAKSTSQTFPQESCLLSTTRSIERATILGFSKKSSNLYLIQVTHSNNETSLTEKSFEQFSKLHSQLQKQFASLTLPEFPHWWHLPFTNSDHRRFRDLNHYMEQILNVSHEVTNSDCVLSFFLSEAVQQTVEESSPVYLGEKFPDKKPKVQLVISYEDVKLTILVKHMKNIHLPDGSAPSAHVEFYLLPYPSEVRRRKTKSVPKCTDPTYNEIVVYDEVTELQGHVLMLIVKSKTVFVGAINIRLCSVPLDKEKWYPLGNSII

[11] = target: Vascular endothelial growth factor receptor 2 (Homo sapiens) (UniProt P35968); experiment: Inhibition of VEGFR2 (unknown origin) assessed as residual activity at 100 nM by KINOMEscan analysis relative to control
[12] = target: Wee1-like protein kinase 2 (Homo sapiens) (UniProt P0C1S8); experiment: Inhibition of WEE2 (unknown origin) assessed as residual activity at 100 nM by KINOMEscan analysis relative to control
[13] = tested on: Receptor-type tyrosine-protein kinase FLT3 (Homo sapiens), P36888 [D835V]; experiment: Inhibition of FLT3 D835V mutant (unknown origin) assessed as residual activity at 1000 nM by KINOMEscan analysis relative to control

Sequence of Vascular endothelial growth factor receptor 2 (Homo sapiens) (P35968 whole entry): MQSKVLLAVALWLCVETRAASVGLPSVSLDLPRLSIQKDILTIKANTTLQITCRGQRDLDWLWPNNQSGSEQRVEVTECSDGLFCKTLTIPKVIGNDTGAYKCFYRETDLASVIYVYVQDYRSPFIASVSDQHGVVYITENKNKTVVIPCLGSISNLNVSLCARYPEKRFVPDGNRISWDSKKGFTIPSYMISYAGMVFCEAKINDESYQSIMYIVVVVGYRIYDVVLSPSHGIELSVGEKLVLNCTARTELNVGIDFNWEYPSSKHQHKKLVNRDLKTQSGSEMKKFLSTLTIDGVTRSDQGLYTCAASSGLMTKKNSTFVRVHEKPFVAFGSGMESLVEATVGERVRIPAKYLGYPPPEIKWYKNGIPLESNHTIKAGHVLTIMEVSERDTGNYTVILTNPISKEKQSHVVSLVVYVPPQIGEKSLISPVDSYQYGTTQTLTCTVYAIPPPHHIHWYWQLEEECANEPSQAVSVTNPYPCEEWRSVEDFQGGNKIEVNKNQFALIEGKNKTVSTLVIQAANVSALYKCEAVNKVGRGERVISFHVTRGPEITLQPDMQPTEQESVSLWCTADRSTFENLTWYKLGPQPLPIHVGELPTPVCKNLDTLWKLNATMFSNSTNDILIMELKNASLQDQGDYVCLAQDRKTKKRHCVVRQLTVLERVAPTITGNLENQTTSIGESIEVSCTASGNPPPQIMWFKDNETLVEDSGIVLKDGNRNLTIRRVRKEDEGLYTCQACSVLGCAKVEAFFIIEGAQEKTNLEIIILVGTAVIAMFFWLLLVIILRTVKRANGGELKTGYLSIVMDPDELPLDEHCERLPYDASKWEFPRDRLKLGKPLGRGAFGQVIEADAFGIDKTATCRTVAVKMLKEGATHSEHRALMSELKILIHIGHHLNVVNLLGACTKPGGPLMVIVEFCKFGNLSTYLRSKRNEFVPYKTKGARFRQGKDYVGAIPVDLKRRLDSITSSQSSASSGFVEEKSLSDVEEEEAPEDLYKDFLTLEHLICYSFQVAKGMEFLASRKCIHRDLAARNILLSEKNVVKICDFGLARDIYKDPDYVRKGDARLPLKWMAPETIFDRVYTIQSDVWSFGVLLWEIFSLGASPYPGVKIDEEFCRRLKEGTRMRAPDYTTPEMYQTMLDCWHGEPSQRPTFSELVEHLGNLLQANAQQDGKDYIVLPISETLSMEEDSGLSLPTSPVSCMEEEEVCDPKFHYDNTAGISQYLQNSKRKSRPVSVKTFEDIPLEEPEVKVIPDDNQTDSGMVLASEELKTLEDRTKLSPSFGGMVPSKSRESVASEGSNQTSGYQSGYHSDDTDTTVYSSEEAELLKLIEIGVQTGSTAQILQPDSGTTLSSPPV
Sequence of Receptor tyrosine-protein kinase erbB-3 (Homo sapiens) (P21860 whole entry): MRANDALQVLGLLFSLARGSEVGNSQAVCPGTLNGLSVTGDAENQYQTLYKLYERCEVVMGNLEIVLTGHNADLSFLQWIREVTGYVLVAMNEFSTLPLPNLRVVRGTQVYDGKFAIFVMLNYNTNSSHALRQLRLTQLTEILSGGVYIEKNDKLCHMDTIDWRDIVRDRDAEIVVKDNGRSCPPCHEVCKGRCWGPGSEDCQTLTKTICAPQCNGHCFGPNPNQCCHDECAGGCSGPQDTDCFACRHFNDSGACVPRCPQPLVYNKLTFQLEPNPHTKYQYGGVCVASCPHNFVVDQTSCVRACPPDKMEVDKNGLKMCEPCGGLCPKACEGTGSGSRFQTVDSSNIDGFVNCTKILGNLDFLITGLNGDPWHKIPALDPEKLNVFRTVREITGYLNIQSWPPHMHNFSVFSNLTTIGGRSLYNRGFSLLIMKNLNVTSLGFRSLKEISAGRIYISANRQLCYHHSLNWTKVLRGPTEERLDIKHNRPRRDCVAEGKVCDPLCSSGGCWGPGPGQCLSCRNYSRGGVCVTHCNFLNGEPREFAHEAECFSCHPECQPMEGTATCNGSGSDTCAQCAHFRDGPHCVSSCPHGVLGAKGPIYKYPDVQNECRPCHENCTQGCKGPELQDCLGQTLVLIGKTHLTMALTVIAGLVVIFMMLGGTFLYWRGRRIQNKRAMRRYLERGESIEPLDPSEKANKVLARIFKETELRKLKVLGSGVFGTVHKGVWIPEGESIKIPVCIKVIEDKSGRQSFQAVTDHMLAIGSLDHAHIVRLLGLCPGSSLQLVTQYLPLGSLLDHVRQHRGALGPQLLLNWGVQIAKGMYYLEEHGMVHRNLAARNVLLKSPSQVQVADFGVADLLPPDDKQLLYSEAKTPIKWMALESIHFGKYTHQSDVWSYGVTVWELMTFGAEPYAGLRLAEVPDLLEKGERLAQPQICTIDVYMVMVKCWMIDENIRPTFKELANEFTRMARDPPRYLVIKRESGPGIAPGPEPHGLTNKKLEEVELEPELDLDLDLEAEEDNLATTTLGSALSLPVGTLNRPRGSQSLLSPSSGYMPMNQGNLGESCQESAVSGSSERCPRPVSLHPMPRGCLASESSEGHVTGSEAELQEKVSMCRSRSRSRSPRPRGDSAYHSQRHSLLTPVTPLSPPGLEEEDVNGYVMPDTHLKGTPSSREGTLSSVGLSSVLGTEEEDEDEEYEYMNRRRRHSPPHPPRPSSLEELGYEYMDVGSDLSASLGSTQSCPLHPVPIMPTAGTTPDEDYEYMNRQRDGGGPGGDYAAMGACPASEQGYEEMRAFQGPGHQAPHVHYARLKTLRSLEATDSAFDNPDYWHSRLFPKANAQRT
Sequence of Casein kinase I isoform gamma-2 (Homo sapiens) (P78368 whole entry, looked up, canonical isoform): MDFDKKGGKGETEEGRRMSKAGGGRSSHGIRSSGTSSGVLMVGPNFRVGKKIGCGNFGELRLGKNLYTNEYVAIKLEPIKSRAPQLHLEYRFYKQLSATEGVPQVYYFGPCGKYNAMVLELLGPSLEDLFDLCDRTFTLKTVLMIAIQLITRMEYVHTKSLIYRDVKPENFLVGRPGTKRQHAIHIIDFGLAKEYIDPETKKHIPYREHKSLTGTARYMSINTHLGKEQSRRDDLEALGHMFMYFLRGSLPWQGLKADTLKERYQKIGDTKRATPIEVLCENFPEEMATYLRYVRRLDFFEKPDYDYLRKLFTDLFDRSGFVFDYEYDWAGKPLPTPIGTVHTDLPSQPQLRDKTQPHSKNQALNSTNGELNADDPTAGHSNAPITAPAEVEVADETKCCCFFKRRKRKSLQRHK
Sequence of Cyclin-dependent kinase 11B (Homo sapiens) (P21127 whole entry, canonical isoform): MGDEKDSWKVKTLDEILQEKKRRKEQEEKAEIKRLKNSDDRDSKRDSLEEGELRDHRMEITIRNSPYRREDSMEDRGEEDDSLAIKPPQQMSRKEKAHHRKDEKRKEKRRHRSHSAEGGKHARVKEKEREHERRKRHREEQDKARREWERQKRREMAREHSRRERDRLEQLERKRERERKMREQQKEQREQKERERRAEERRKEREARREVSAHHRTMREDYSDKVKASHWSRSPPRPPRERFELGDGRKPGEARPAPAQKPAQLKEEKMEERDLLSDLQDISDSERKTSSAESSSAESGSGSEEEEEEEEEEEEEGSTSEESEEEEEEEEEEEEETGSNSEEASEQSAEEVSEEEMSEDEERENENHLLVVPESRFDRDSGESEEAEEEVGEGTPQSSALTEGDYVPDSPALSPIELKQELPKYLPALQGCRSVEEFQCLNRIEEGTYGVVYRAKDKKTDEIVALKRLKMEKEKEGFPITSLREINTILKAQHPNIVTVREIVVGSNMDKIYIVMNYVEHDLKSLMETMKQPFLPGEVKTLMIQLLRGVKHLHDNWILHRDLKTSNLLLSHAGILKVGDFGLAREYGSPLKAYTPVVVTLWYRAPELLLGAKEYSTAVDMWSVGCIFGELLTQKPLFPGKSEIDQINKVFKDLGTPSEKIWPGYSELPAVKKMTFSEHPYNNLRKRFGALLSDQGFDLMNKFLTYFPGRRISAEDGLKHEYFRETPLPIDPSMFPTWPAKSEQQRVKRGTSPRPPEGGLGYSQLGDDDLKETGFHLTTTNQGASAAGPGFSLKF
Sequence of Mitogen-activated protein kinase 14 (Homo sapiens) (Q16539 whole entry, the tested form may be a part): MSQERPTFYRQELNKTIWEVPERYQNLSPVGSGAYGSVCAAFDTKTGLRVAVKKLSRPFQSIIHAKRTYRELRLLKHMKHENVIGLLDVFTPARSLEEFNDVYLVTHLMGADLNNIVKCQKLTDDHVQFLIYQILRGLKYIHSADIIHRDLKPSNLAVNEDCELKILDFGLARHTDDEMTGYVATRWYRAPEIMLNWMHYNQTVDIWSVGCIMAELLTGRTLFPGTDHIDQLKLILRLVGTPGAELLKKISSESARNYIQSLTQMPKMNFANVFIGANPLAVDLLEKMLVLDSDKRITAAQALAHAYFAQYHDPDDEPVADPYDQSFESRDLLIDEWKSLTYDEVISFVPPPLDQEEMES
Sequence of Wee1-like protein kinase 2 (Homo sapiens) (P0C1S8 whole entry, looked up): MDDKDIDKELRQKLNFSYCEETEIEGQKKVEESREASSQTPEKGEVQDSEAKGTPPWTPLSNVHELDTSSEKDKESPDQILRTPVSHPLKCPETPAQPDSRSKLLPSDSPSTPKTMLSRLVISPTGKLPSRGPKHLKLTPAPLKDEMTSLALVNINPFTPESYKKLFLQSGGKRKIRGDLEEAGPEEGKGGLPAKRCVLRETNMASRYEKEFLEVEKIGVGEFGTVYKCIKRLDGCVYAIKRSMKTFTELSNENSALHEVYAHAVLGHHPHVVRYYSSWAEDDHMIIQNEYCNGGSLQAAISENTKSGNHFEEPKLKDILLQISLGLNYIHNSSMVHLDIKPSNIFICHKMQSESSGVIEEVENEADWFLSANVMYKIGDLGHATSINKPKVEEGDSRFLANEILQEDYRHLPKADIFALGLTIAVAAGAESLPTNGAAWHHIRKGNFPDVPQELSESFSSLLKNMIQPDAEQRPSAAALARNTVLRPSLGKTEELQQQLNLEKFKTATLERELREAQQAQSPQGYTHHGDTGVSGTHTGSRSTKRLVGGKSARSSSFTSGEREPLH

Compound `COc1cc2ncnc(N[C@H](C)c3cccc4ccccc34)c2cc1OC` has an Activity [1] of 82%, an Activity [2] of 91% and an Activity [3] of 89%. It also gave an Activity [4] of 72%, an Activity [5] of 83% and an Activity [6] of 100%. It also gave an Activity [7] of 100%, an Activity [8] of 49% and an Activity [9] of 89%. For the same compound, the Activity [10] was 85%, the Activity [11] was 75% and the Activity [12] was 100%.

For `COc1cc2nc(C)nc(N[C@H](C)c3cccc(-c4cn[nH]c4)c3)c2cc1OC`, the Activity [13] was 100%.
